Literature values, collected in patent publication US6124282A (priority 1998, dated 2000).

Assays:
[1] = system: extensive metabolisers (EMs) and poor metabolisers (PMs); details: PMs and EMs pretreated with quinidine; cited from earlier work
[2] = system: extensive metabolizers (EMs); details: inhibiting CYP2D6 (EMs converted into PMs); cited from earlier work
[3] = oral; urine; cited from earlier work

COc1ccc2c3c1O[C@H]1[C@@H](O)C=C[C@H]4[C@@H](C2)N(C)CC[C@@]341 [codeine]
codeine analgesia [1]: impaired in PMs as well as in EMs
codeine consumption [2]: significantly decreases codeine consumption
excreted unchanged [3]: About 4%
